Experimental data taken from article doi:10.1101/675579v1, “Oncoprotein GT198 is a direct target of taxol” (biorxiv, 2019).

What was measured:
Assay type in all cases: binding
[1] = molecular target: T1, GT198 DBD fragment 126-217 (Homo sapiens, UniProt Q9P2W1); assay: competition with Oregon green-taxol on protein-coated plates, fluorescence
T1 construct: gene PSMC3IP
T1 sequence (Q9P2W1 126-217): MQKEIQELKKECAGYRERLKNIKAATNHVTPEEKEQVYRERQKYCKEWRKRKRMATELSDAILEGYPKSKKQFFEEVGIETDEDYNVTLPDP

[2] = molecular target: T1, GT198 DBD fragment 126-217; assay: competition with biotinylated ssDNA on protein-coated plates, streptavidin-HRP chemiluminescence
[3] = molecular target: T2, GT198 (wild type full length, His-tagged) (Homo sapiens, UniProt Q9P2W1); assay: competition with Oregon green-taxol on protein-coated plates, fluorescence
T2 construct: gene PSMC3IP; full length aa 1-217, N-terminal His tag kept, E. coli BL21(DE3)pLysS, Ni-NTA; homodimer
T2 sequence (Q9P2W1 1-217): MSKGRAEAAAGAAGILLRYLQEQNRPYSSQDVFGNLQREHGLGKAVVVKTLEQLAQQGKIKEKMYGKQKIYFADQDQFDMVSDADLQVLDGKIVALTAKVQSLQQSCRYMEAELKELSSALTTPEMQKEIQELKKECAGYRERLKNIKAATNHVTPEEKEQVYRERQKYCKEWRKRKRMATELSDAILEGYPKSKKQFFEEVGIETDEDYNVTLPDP

[4] = molecular target: T2, GT198 (wild type full length, His-tagged); assay: competition with biotinylated ssDNA on protein-coated plates, streptavidin-HRP chemiluminescence

IC50 [1]: 15.2 nM
IC50 [2]: 7.3 nM
IC50 [3]: 8.8 nM
IC50 [4]: 8.6 nM
SMILES: CC(=O)O[C@H]1C(=O)[C@@]2(C)[C@H]([C@H](OC(=O)c3ccccc3)[C@]3(O)C[C@H](OC(=O)[C@H](O)[C@@H](NC(=O)c4ccccc4)c4ccccc4)C(C)=C1C3(C)C)[C@]1(OC(C)=O)CO[C@@H]1C[C@@H]2O [taxol]
